Reference: ChEMBL document CHEMBL4354881, “Optimization of Potent ATAD2 and CECR2 Bromodomain Inhibitors with an Atypical Binding Mode” (J Med Chem, 2020)
pIC50, pKd: −log10 of the molar value.

Legend:
[1] = biological target: T1, ATPase family AAA domain-containing protein 2B (Homo sapiens, UniProt Q9ULI0); experiment: Binding affinity to human partial length ATAD2B (Q955 to R1082 residues) expressed in bacterial expression system by BROMOscan assay
T1 sequence (Q9ULI0 whole entry): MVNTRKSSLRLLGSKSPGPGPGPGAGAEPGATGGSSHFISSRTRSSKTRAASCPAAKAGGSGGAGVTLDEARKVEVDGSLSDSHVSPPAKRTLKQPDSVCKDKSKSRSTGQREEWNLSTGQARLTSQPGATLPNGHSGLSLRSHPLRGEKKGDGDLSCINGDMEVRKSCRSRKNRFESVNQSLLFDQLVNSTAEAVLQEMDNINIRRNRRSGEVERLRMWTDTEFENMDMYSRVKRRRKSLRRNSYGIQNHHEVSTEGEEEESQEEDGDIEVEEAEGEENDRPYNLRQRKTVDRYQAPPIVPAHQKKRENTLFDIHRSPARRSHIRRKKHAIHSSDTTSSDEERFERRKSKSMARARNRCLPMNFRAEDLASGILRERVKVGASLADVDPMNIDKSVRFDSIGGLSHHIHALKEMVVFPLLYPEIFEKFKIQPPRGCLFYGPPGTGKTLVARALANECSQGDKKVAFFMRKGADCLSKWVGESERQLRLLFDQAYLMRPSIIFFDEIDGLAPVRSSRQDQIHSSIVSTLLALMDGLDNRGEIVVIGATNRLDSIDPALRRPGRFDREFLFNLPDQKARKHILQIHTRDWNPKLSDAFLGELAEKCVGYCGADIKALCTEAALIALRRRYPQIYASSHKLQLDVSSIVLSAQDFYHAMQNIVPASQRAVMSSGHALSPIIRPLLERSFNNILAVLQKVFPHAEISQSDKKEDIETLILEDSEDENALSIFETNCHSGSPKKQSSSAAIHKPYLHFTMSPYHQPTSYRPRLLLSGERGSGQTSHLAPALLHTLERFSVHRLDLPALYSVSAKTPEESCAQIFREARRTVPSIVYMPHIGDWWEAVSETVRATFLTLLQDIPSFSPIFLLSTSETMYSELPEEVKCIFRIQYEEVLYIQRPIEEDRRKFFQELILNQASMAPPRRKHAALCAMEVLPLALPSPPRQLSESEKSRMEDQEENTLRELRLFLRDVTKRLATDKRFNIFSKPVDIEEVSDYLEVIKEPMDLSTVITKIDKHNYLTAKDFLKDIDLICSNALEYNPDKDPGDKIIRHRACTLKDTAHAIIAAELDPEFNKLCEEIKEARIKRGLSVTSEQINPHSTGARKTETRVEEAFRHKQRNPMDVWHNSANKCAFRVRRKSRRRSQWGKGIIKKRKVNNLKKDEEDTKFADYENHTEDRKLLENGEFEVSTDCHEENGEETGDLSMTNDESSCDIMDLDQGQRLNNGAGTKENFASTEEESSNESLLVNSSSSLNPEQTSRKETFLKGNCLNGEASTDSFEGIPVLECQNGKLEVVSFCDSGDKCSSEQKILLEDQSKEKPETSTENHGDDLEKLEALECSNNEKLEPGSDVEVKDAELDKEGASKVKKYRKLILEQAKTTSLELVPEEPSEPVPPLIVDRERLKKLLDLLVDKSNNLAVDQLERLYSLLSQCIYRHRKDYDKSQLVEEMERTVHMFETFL

[2] = biological target: Chromatin remodeling regulator CECR2 (Homo sapiens, UniProt Q9BXF3); experiment: Displacement of Alexa Fluor 647-labeled GSK tracer from FLAG-6His-Tev-fused CECR2 (424 to 543 residue) (unknown origin) measured after 15 mins by TR-FRET assay
[3] = biological target: Histone acetyltransferase KAT2A (Homo sapiens, UniProt Q92830); experiment: Binding affinity to human partial length GCN5L2 (E726 to K837 residues) expressed in bacterial expression system by BROMOscan assay
[4] = biological target: T2, ATPase family AAA domain-containing protein 2 (Homo sapiens, UniProt Q6PL18); experiment: Binding affinity to human partial length ATAD2A (Q981 to R1108 residues) expressed in bacterial expression system by BROMOscan assay
T2 sequence (Q6PL18 whole entry): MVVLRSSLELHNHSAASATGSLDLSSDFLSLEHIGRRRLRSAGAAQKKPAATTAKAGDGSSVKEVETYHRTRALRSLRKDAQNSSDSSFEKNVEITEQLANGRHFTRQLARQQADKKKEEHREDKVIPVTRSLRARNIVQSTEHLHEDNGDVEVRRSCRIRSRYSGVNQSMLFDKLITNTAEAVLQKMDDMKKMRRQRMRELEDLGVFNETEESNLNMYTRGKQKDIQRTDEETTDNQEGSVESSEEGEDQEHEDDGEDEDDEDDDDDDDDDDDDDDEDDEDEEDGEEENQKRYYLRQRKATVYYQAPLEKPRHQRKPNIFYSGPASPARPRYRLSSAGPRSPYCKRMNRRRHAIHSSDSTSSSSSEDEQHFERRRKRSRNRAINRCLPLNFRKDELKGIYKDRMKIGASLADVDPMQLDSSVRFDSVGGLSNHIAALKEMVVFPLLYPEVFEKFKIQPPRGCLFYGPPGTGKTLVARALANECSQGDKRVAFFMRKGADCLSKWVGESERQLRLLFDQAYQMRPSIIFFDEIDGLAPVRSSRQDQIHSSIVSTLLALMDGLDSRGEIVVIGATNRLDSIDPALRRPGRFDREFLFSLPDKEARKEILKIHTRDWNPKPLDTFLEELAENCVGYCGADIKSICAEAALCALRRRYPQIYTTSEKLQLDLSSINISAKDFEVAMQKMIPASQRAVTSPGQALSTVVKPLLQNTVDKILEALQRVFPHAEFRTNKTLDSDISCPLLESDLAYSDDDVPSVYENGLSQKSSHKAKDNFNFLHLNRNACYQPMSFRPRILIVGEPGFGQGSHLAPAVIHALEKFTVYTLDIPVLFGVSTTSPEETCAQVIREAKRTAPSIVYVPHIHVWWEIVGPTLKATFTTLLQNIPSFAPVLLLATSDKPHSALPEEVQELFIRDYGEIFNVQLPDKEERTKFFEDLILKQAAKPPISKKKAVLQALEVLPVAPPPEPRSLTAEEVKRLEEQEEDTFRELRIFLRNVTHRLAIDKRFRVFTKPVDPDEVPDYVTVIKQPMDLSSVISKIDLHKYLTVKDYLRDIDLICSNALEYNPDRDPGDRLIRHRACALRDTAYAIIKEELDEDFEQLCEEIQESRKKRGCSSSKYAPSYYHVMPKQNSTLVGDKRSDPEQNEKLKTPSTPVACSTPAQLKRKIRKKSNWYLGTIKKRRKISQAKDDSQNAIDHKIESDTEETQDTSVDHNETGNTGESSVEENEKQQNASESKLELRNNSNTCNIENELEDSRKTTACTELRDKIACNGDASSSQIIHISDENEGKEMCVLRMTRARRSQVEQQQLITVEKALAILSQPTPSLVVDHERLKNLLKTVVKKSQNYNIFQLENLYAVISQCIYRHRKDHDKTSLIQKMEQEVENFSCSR

Chain of Histone acetyltransferase KAT2A (Q92830 whole entry, the tested form may be a part): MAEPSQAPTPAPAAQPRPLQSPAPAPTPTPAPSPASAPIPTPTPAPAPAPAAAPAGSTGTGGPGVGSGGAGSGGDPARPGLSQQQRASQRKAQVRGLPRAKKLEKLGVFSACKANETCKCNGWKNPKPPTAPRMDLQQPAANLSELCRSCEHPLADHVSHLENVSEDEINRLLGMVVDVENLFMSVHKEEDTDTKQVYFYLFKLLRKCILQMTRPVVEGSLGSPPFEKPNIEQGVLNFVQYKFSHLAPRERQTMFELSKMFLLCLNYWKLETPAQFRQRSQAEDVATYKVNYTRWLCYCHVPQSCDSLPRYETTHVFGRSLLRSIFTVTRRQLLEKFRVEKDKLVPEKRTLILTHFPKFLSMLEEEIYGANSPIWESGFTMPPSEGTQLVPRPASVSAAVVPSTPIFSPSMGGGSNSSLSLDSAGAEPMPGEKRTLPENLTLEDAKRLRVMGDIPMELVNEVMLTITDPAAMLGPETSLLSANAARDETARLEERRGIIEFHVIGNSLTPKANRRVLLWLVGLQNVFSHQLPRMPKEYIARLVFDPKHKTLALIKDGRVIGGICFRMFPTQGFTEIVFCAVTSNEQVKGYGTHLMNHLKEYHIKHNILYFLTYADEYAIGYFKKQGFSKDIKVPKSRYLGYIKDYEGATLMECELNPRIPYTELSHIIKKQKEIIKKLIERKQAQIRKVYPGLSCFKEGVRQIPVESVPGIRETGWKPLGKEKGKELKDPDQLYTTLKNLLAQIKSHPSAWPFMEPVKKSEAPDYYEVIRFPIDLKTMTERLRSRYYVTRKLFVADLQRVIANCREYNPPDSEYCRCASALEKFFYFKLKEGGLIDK
Chain of Chromatin remodeling regulator CECR2 (Q9BXF3 whole entry, the tested form may be a part): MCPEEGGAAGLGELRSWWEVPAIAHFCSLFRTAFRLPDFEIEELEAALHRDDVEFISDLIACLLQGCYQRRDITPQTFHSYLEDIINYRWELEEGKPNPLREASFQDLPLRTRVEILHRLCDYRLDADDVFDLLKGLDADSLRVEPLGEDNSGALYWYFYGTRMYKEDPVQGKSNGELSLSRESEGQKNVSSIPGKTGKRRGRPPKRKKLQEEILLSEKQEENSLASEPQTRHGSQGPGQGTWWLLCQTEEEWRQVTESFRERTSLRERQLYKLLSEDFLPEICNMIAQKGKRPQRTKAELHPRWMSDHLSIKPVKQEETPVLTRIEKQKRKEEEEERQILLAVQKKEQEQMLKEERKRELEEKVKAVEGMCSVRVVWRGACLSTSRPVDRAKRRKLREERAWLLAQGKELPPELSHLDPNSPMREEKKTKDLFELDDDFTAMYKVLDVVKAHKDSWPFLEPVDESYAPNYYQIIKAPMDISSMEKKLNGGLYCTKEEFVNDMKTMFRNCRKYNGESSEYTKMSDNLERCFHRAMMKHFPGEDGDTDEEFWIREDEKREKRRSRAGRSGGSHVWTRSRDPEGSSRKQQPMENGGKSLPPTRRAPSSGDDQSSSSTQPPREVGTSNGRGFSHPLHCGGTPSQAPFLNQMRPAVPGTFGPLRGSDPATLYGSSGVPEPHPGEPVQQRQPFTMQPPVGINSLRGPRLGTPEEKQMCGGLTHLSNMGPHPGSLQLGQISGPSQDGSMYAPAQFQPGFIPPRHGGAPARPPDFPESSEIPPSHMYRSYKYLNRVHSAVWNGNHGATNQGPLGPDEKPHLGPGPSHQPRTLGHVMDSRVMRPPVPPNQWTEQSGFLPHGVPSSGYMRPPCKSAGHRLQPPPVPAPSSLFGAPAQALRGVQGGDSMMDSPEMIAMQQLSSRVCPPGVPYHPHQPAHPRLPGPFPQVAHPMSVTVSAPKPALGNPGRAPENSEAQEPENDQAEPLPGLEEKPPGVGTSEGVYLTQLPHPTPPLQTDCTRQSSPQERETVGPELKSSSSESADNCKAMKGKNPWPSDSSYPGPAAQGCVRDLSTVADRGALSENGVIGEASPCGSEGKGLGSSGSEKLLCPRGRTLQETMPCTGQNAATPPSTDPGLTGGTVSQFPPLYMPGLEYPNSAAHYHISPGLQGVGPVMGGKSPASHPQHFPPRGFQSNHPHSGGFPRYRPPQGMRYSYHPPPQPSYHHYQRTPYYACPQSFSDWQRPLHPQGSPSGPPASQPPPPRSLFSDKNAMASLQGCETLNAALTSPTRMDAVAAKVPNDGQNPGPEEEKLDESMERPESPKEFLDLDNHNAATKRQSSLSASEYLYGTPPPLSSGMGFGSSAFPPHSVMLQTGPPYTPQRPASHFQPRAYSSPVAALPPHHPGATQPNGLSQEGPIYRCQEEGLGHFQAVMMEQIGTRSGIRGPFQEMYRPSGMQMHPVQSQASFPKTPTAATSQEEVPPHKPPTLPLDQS

pKd [1]: 7.70 | pIC50 [2]: 6.50 | pKd [3]: 6.60 | pKd [4]: 8.00
SMILES: C[C@H]1CCN(S(=O)(=O)c2cc(NC(=O)CN3C(=O)N[C@@](C)(C4CC4)C3=O)ccc2Br)C1
